In PubChem BioAssay (NCI) one finds GI50 and TGI data, which are given here for 13 molecules.

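Each compound was tested at five concentrations against cells in 96-well plates for 48 hours. Abbreviation: GI50, concentration required for 50% inhibition of growth. TGI: total growth inhibition.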

Common to all, as to assay: growth of human tumour cells (NCI), 48 h
Assay [1] relates to TK-10 renal.
The subject of assay [2] is SK-OV-3 ovarian.
The test system of assay [3] is SF-295 CNS.
The subject of assay [4] is SNB-75 CNS.
Assay [5] relates to COLO 205 colon.
Assay [6] relates to OVCAR-4 ovarian.
Assay [7] relates to UACC-257 melanoma.
For assay [8], the system named is OVCAR-8 ovarian.
The subject of assay [9] is CAKI-1 renal.
Assay [10] relates to NCI-H460 lung.

On to `CN(c1cc2ncc(=O)[nH]c2cc1NC(N)=NCc1ccc(Cl)cc1)C1CCCCC1`, for which the GI50 in assay [1] was 7.44 µM; in [2] it was 7.6 µM; in [3] it was 7.42 µM; in [4], 2870 nM; in assay [5] it was 1110 nM; in assay [6] it was 6.21 µM. For the same molecule, the GI50 in assay [7] is 9.77 µM; in assay [8] it was 10.4 µM; in assay [9], 7.47 µM; in assay [10], 7.14 µM. In addition, the TGI was determined as 15.2 µM in [1]; 15.8 µM in assay [2]; 14.9 µM in assay [3]; 10.1 µM in assay [4]; 2.55 µM in assay [5]; 17.2 µM in assay [6]. For the same molecule, the TGI was 19.2 µM in assay [7], 23.3 µM in [8], 14.5 µM in assay [9] and 14.5 µM in [10].
With `Nc1cc2c(nnn2C2OC(COCc3ccccc3)C(OCc3ccccc3)C2OCc2ccccc2)c(=O)[nH]1` (stereo not given), the TGI is 52.1 µM in [1]; over 100 µM in assay [2]; over 100 µM in assay [3]; over 100 µM in assay [4]; 20.3 µM in [5]; over 100 µM in assay [6]. Also, the TGI is 58.6 µM in [7], over 100 µM in assay [8], over 100 µM in assay [9] and 92.3 µM in assay [10].
Consider `CCCCCCCCCCCCCCCc1ccc(OCC(O)CO)cc1` (stereo not given), for which the TGI in assay [1] is over 100 µM; in assay [2] it was over 100 µM; in assay [3] it was over 100 µM; in assay [4], 72 µM; in assay [5] it was 59.3 µM; in assay [6], 40.8 µM. The TGI was over 100 µM in [7], 72.7 µM in [8], over 100 µM in assay [9] and 53.6 µM in assay [10].
Regarding `CCCCCCNC(=O)c1cc(CCc2cc(O)ccc2O)ccc1O`, the TGI in assay [1] worked out at 9.15 µM; in assay [2], 25 µM; in [3], 31.3 µM; in [4], 14.4 µM; in assay [5], 41.6 µM; in assay [6] it was 6.75 µM. Also, the TGI stood at 6.26 µM in assay [7], 17.6 µM in [8], 13.6 µM in [9] and 27.4 µM in assay [10].
For the molecule `N#CC(c1nc2ccccc2s1)c1ncnc(Cl)c1[N+](=O)[O-]` (stereo not given), the TGI in assay [1] was over 100 µM; in [2] it was over 100 µM; in [3] it was over 100 µM; in [4], over 100 µM; in [5], 29.8 µM; in assay [6], over 100 µM. In addition, the TGI in assay [7] is 41 µM; in assay [8], 34.7 µM; in assay [9], over 100 µM; in assay [10], 47.1 µM.
`C/C(=C\c1ccccc1)C(=O)NCc1ccc(C(=O)NCCC(C)C)cc1`: the TGI was over 100 µM in assay [1]; 94.6 µM in assay [2]; over 100 µM in assay [3]; 89.4 µM in assay [4]; over 100 µM in assay [5]; over 100 µM in [6]. Further, the TGI in assay [7], in assay [8], in assay [9] and in [10] was over 100 µM each time.
For `O=C1CS(=O)(=O)C(c2cccc(Oc3ccccc3)c2)N1c1cccc(Cl)c1` (stereo not given), the TGI in assay [1] is 63.1 µM; in assay [2], over 100 µM; in assay [3] it was over 100 µM; in [4], over 100 µM; in assay [5] it was 41.1 µM; in assay [6], over 100 µM. The TGI in assay [7] turned out to be 46.4 µM; in [8], 82.8 µM; in assay [9], 83.5 µM; in [10], 41.3 µM.
For `O=S1(=O)C(c2ccccc2)C(N2CCCCC2)C1C1CC2c3ccccc3C1c1ccccc12` (stereo not given), the TGI in assay [1], in [2], in assay [3], in [4], in assay [5] and in assay [6] was over 100 µM throughout. Also, the TGI in assay [7], in assay [8], in assay [9] and in [10] was over 100 µM throughout.
As to `CCN(CC)CCCC(C)Nc1ccnc2cc3ccccc3cc12` (stereo not given), the TGI in assay [1] stood at 78.6 µM; in assay [2] it was 50 µM; in assay [3] it was 24.6 µM; in [4] it was 20.1 µM; in assay [5] it was 11.7 µM; in assay [6], 7.92 µM. Moreover, the TGI in assay [7] was 46.1 µM; in [8] it was 54.2 µM; in assay [9] it was 42.2 µM; in assay [10], 24.4 µM.
`N#CC(c1ccnc(Cl)n1)c1nc2ccccc2s1` (stereo not given): the TGI is over 60.7 µM in [1]; 16 µM in assay [2]; 31.5 µM in assay [3]; 13 µM in assay [4]; 24.6 µM in assay [5]; over 100 µM in assay [6]. For the same molecule, the TGI in assay [7] is 41.2 µM; in assay [8], over 41.2 µM; in assay [9], over 45.4 µM; in assay [10] it was over 100 µM.
Regarding `CC(C)CCC[C@@H](C)[C@H]1CC[C@H]2[C@@H]3CC[C@H]4C[C@H](N)CC[C@]4(C)[C@H]3CC[C@]12C`, the TGI was found to be 37.2 µM in [1]; 64.5 µM in [2]; 45.5 µM in [3]; 57.1 µM in assay [4]; 56.3 µM in assay [5]; 65.4 µM in assay [6]. In addition, the TGI was 41.6 µM in [7], 86.4 µM in [8], 59 µM in assay [9] and over 100 µM in assay [10].
Consider `CC(=O)c1c(SCCN2CCCC2)n(-c2ccccc2)c(=S)n(-c2ccccc2)c1=O`, for which the TGI is 8.5 µM in assay [1]; over 100 µM in [2]; over 100 µM in assay [3]; 31.8 µM in [4]; 3.48 µM in assay [5]; over 90.7 µM in assay [6]. In addition, the TGI is 9.17 µM in [7], 23.5 µM in assay [8], 10.2 µM in assay [9] and over 46.6 µM in assay [10].
Consider `CC(=O)Nc1ccc(N=C2C(c3ccccc3)=C(SC3=C(c4ccccc4)C(=Nc4ccc(NC(C)=O)cc4)c4ccccc43)c3ccccc32)cc1`, for which the TGI in assay [1], in assay [2], in [3], in assay [4], in assay [5] and in [6] was over 100 µM in each case. The TGI in assay [7], in assay [8], in assay [9] and in [10] was over 100 µM each time.
